The values that follow are results of earlier work, collected in article PMC6114101 (International Journal for Parasitology: Drugs and Drug …, 2018).

One data set deals with N. caninum. The settings on record: ref Ojo et al., 2014; Winzer et al., 2015; Müller et al., 2017a.
Data set [1] has as its system human ether-a-go-go-related gene (hERG) ion channel. The note with it: ref Vidadala et al., 2016.
The conditions of data set [2]: ref Ojo et al., 2013.

`CCOc1ccc2cc(-c3nn(CC4CCN(C)CC4)c4ncnc(N)c34)ccc2c1` [BKI-1294]: the “activity against N. caninum in vitro” value with N. caninum is listed as “effective”. Further, the hERG inhibition result in data set [1] is “potent”. Moreover, the excreted in urine in data set [2] was 1%.
Turning to `CCOc1ccc2cc(-c3nn(C(C)(C)C)c(N)c3C(N)=O)cnc2c1` [BKI-1517], the “activity against N. caninum in vitro” value with N. caninum is listed as “effective”.
